The molecules below were run on redroot pigweed (assay: Test Example 5: herbicidal effect by foliage application, plastic box (Table 20, symbol N)). Details: foliage application, AAH 320 g/ha, three weeks after application.
Type: in vivo, redroot pigweed (Amaranthus retroflexus)
How it was run: (§1)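 Post-emergence foliar test in sterilized diluvial soil. Compound applied as water-diluted emulsion at a predetermined rate to 14-day-old plants; evaluation at three weeks.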
In the case of `COc1cc(F)ccc1-c1sc2ccccc2c1-c1c(O)c(OC)nn(C)c1=O` [1-176], the “N: redroot pigweed, herbicidal effect” value is reported as 5 (Herbicidal rate of 90% or more (almost completely withered)).

Each molecule was assayed on chickweed (assay: Test Example 5: herbicidal effect by foliage application, plastic box (Table 20, symbol P)). Details: foliage application, AAH 320 g/ha, three weeks after application.
Type: in vivo, common chickweed (Stellaria media)
How it was run: as §1
For `COc1cc(F)ccc1-c1sc2ccccc2c1-c1c(O)c(OC)nn(C)c1=O` [1-176], the “P: chickweed, herbicidal effect” value was 5 (Herbicidal rate of 90% or more (almost completely withered)).

Each molecule was assayed on chickweed (assay: Test Example 4: herbicidal effect by soil treatment (Table 19, symbol P)). Details: AAH 320 g/ha.
Type: in vivo, common chickweed (Stellaria media)
How it was run: (§2)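 Emulsion of test compound, water-diluted to predetermined amount, sprayed on soil after sowing (seed depth ~1.5 cm, sterilized diluvial soil). Greenhouse, 25–30° C. Effect graded at three weeks post-spray.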
For `COc1cc(F)ccc1-c1sc2ccccc2c1-c1c(O)c(OC)nn(C)c1=O` [1-176], the “P: chickweed, herbicidal effect rating” value was 5 (Herbicidal rate of 90% or more (almost completely withered)).

The molecules below were run on southern crabgrass (assay: Test Example 5: herbicidal effect by foliage application, plastic box (Table 20, symbol F)). Details: foliage application, AAH 320 g/ha, three weeks after application.
Type: in vivo, southern crabgrass (Digitaria ciliaris)
How it was run: as §1
`COc1cc(F)ccc1-c1sc2ccccc2c1-c1c(O)c(OC)nn(C)c1=O` [1-176] was tested, and the “F: southern crabgrass, herbicidal effect” value was 4 (Herbicidal rate of 70% or more and less than 90%).

These molecules were tested on blackgrass (assay: Test Example 4: herbicidal effect by soil treatment (Table 19, symbol J)). Details: AAH 320 g/ha.
Type: in vivo, blackgrass (Alopecurus myosuroides)
How it was run: as §2
`COc1cc(F)ccc1-c1sc2ccccc2c1-c1c(O)c(OC)nn(C)c1=O` [1-176] was tested, and the “J: blackgrass, herbicidal effect rating” value was 5 (Herbicidal rate of 90% or more (almost completely withered)).

What follows are molecules tested on lambsquarters (assay: Test Example 5: herbicidal effect by foliage application, plastic box (Table 20, symbol O)). Details: foliage application, AAH 320 g/ha, three weeks after application.
Type: in vivo, lambsquarters (Chenopodium album)
How it was run: as §1
For `COc1cc(F)ccc1-c1sc2ccccc2c1-c1c(O)c(OC)nn(C)c1=O` [1-176], the “O: lambsquarters, herbicidal effect” value was 5 (Herbicidal rate of 90% or more (almost completely withered)).

The molecules below were run on windgrass (assay: Test Example 5: herbicidal effect by foliage application, plastic box (Table 20, symbol L)). Details: foliage application, AAH 320 g/ha, three weeks after application.
Type: in vivo, windgrass (Apera spica-venti)
How it was run: as §1
For `COc1cc(F)ccc1-c1sc2ccccc2c1-c1c(O)c(OC)nn(C)c1=O` [1-176], the “L: windgrass, herbicidal effect” value was 5 (Herbicidal rate of 90% or more (almost completely withered)).

These molecules were tested on lambsquarters (assay: Test Example 4: herbicidal effect by soil treatment (Table 19, symbol O)). Details: AAH 320 g/ha.
Type: in vivo, lambsquarters (Chenopodium album)
How it was run: as §2
In the case of `COc1cc(F)ccc1-c1sc2ccccc2c1-c1c(O)c(OC)nn(C)c1=O` [1-176], the “O: lambsquarters, herbicidal effect rating” value is reported as 4 (Herbicidal rate of 70% or more and less than 90%).

These molecules were tested on green foxtail (assay: Test Example 5: herbicidal effect by foliage application, plastic box (Table 20, symbol G)). Details: foliage application, AAH 320 g/ha, three weeks after application.
Type: in vivo, green foxtail (Setaria viridis)
How it was run: as §1
For `COc1cc(F)ccc1-c1sc2ccccc2c1-c1c(O)c(OC)nn(C)c1=O` [1-176], the “G: green foxtail, herbicidal effect” value was 5 (Herbicidal rate of 90% or more (almost completely withered)).

The molecules below were run on barnyard grass (assay: Test Example 3: herbicidal effect by foliage application, Wagner pot (Table 18, symbol H)). Details: 320 g/ha.
Type: in vivo, barnyard grass (Echinochloa crus-galli)
How it was run: (§3)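 Plants were sown in alluvial soil held under 0.1–0.5 cm standing water and grown 14 days in a greenhouse at 25–30 °C. An emulsifiable formulation, water-diluted to the set dose, was then sprayed onto the foliage, and effects were scored three weeks later using previously defined criteria.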
For `COc1cc(F)ccc1-c1sc2ccccc2c1-c1c(O)c(OC)nn(C)c1=O` [1-176], the “herbicidal effect on H (barnyard grass), rating 0-5” value was 4 (Herbicidal rate of 70% or more and less than 90%).

Each molecule was assayed on barnyard grass (assay: Test Example 5: herbicidal effect by foliage application, plastic box (Table 20, symbol H)). Details: foliage application, AAH 320 g/ha, three weeks after application.
Type: in vivo, barnyard grass (Echinochloa crus-galli)
How it was run: as §1
In the case of `COc1cc(F)ccc1-c1sc2ccccc2c1-c1c(O)c(OC)nn(C)c1=O` [1-176], the “H: barnyard grass, herbicidal effect” value is reported as 5 (Herbicidal rate of 90% or more (almost completely withered)).

Each molecule was assayed on velvetleaf (assay: Test Example 5: herbicidal effect by foliage application, plastic box (Table 20, symbol M)). Details: foliage application, AAH 320 g/ha, three weeks after application.
Type: in vivo, velvetleaf (Abutilon theophrasti)
How it was run: as §1
`COc1cc(F)ccc1-c1sc2ccccc2c1-c1c(O)c(OC)nn(C)c1=O` [1-176] was tested, and the “M: velvetleaf, herbicidal effect” value was 5 (Herbicidal rate of 90% or more (almost completely withered)).

Each molecule was assayed on wild oat (assay: Test Example 4: herbicidal effect by soil treatment (Table 19, symbol I)). Details: AAH 320 g/ha.
Type: in vivo, wild oat (Avena fatua)
How it was run: as §2
In the case of `COc1cc(F)ccc1-c1sc2ccccc2c1-c1c(O)c(OC)nn(C)c1=O` [1-176], the “I: wild oat, herbicidal effect rating” value is reported as 3 (Herbicidal rate of 40% or more and less than 70%).

These molecules were tested on Italian ryegrass (assay: Test Example 5: herbicidal effect by foliage application, plastic box (Table 20, symbol K)). Details: foliage application, AAH 320 g/ha, three weeks after application.
Type: in vivo, Italian ryegrass (Lolium multiflorum)
How it was run: as §1
`COc1cc(F)ccc1-c1sc2ccccc2c1-c1c(O)c(OC)nn(C)c1=O` [1-176] was tested, and the “K: Italian ryegrass, herbicidal effect” value was 3 (Herbicidal rate of 40% or more and less than 70%).

These molecules were tested on redroot pigweed (assay: Test Example 4: herbicidal effect by soil treatment (Table 19, symbol N)). Details: AAH 320 g/ha.
Type: in vivo, redroot pigweed (Amaranthus retroflexus)
How it was run: as §2
In the case of `COc1cc(F)ccc1-c1sc2ccccc2c1-c1c(O)c(OC)nn(C)c1=O` [1-176], the “N: redroot pigweed, herbicidal effect rating” value is reported as 5 (Herbicidal rate of 90% or more (almost completely withered)).

Each molecule was assayed on velvetleaf (assay: Test Example 4: herbicidal effect by soil treatment (Table 19, symbol M)). Details: AAH 320 g/ha.
Type: in vivo, velvetleaf (Abutilon theophrasti)
How it was run: as §2
In the case of `COc1cc(F)ccc1-c1sc2ccccc2c1-c1c(O)c(OC)nn(C)c1=O` [1-176], the “M: velvetleaf, herbicidal effect rating” value is reported as 1 (Herbicidal rate of 5% or more and less than 20%).

Each molecule was assayed on barnyard grass (assay: Test Example 4: herbicidal effect by soil treatment (Table 19, symbol H)). Details: AAH 320 g/ha.
Type: in vivo, barnyard grass (Echinochloa crus-galli)
How it was run: as §2
For `COc1cc(F)ccc1-c1sc2ccccc2c1-c1c(O)c(OC)nn(C)c1=O` [1-176], the “H: barnyard grass, herbicidal effect rating” value was 5 (Herbicidal rate of 90% or more (almost completely withered)).

The molecules below were run on windgrass (assay: Test Example 4: herbicidal effect by soil treatment (Table 19, symbol L)). Details: AAH 320 g/ha.
Type: in vivo, windgrass (Apera spica-venti)
How it was run: as §2
For `COc1cc(F)ccc1-c1sc2ccccc2c1-c1c(O)c(OC)nn(C)c1=O` [1-176], the “L: windgrass, herbicidal effect rating” value was 5 (Herbicidal rate of 90% or more (almost completely withered)).

These molecules were tested on green foxtail (assay: Test Example 4: herbicidal effect by soil treatment (Table 19, symbol G)). Details: AAH 320 g/ha.
Type: in vivo, green foxtail (Setaria viridis)
How it was run: as §2
`COc1cc(F)ccc1-c1sc2ccccc2c1-c1c(O)c(OC)nn(C)c1=O` [1-176] was tested, and the “G: green foxtail, herbicidal effect rating” value was 5 (Herbicidal rate of 90% or more (almost completely withered)).

Each molecule was assayed on persian speedwell (assay: Test Example 4: herbicidal effect by soil treatment (Table 19, symbol R)). Details: AAH 320 g/ha.
Type: in vivo, Persian speedwell (Veronica persica)
How it was run: as §2
In the case of `COc1cc(F)ccc1-c1sc2ccccc2c1-c1c(O)c(OC)nn(C)c1=O` [1-176], the “R: persian speedwell, herbicidal effect rating” value is reported as 5 (Herbicidal rate of 90% or more (almost completely withered)).

What follows are molecules tested on persian speedwell (assay: Test Example 5: herbicidal effect by foliage application, plastic box (Table 20, symbol R)). Details: foliage application, AAH 320 g/ha, three weeks after application.
Type: in vivo, Persian speedwell (Veronica persica)
How it was run: as §1
`COc1cc(F)ccc1-c1sc2ccccc2c1-c1c(O)c(OC)nn(C)c1=O` [1-176] was tested, and the “R: persian speedwell, herbicidal effect” value was 5 (Herbicidal rate of 90% or more (almost completely withered)).

What follows are molecules tested on rice flat sedge (assay: Test Example 3: herbicidal effect by foliage application, Wagner pot (Table 18, symbol E)). Details: 320 g/ha.
Type: in vivo, rice flat sedge (Cyperus iria)
How it was run: as §3
In the case of `COc1cc(F)ccc1-c1sc2ccccc2c1-c1c(O)c(OC)nn(C)c1=O` [1-176], the “herbicidal effect on E (rice flat sedge), rating 0-5” value is reported as 5 (Herbicidal rate of 90% or more (almost completely withered)).

The molecules below were run on wild oat (assay: Test Example 5: herbicidal effect by foliage application, plastic box (Table 20, symbol I)). Details: foliage application, AAH 320 g/ha, three weeks after application.
Type: in vivo, wild oat (Avena fatua)
How it was run: as §1
With `COc1cc(F)ccc1-c1sc2ccccc2c1-c1c(O)c(OC)nn(C)c1=O` [1-176] the “I: wild oat, herbicidal effect” value was 4 (Herbicidal rate of 70% or more and less than 90%).

The molecules below were run on Chinese sprangletop (assay: Test Example 3: herbicidal effect by foliage application, Wagner pot (Table 18, symbol D)). Details: 320 g/ha.
Type: in vivo, chinese sprangletop (Leptochloa chinensis)
How it was run: as §3
`COc1cc(F)ccc1-c1sc2ccccc2c1-c1c(O)c(OC)nn(C)c1=O` [1-176] was tested, and the “herbicidal effect on D (Chinese sprangletop), rating 0-5” value was 3 (Herbicidal rate of 40% or more and less than 70%).

Each molecule was assayed on Italian ryegrass (assay: Test Example 4: herbicidal effect by soil treatment (Table 19, symbol K)). Details: AAH 320 g/ha.
Type: in vivo, Italian ryegrass (Lolium multiflorum)
How it was run: as §2
For `COc1cc(F)ccc1-c1sc2ccccc2c1-c1c(O)c(OC)nn(C)c1=O` [1-176], the “K: Italian ryegrass, herbicidal effect rating” value was 1 (Herbicidal rate of 5% or more and less than 20%).

These molecules were tested on blackgrass (assay: Test Example 5: herbicidal effect by foliage application, plastic box (Table 20, symbol J)). Details: foliage application, AAH 320 g/ha, three weeks after application.
Type: in vivo, blackgrass (Alopecurus myosuroides)
How it was run: as §1
With `COc1cc(F)ccc1-c1sc2ccccc2c1-c1c(O)c(OC)nn(C)c1=O` [1-176] the “J: blackgrass, herbicidal effect” value was 4 (Herbicidal rate of 70% or more and less than 90%).

What follows are molecules tested on southern crabgrass (assay: Test Example 4: herbicidal effect by soil treatment (Table 19, symbol F)). Details: AAH 320 g/ha.
Type: in vivo, southern crabgrass (Digitaria ciliaris)
How it was run: as §2
In the case of `COc1cc(F)ccc1-c1sc2ccccc2c1-c1c(O)c(OC)nn(C)c1=O` [1-176], the “F: southern crabgrass, herbicidal effect rating” value is reported as 4 (Herbicidal rate of 70% or more and less than 90%).

Reference: US20230085307A1, “PYRIDAZINONE COMPOUND AND HERBICIDE” (NISSAN CHEMICAL CORPORATION, priority 2019, published 2023)
